In patent US20060122279A1, “Hydrophobic polyamine amides as potent lipopolysaccharide sequestrants” (priority 2004, published 2006):
“And” between values parts separate entries of the source, which are not always exact repeats. Equal entries are not always repeated. Marks after values point to notes of the source that are not given here.

Columns and labels:
CF-1 mice = assay: Mouse lethality model of endotoxic shock (D-galactosamine sensitized, LPS challenge); type: in vivo; conditions: for time window of protection, in words: 200 ng/mouse LPS
Description: Based on the results of the displacement assays, NO and cytokine inhibition data, 8 is elected for detailed evaluation in animal experiments. […] In all experiments reported herein, a supralethal dose of 200 ng per mouse, in a final volume of 0.2 ml saline is used. The dose-response of protection afforded by 8 is depicted in Table 4. Previous studies with labile spermine conjugates such as DOSPER^37 had shown the window of protection to be very short, a 15 minute window of protection. Compound 8, with its greater anticipated hydrolytic stability, is examined to see if it affords a more extended time-window of protection. 200 μg of 8 in a final volume of 0.2 ml injections are administered intraperitoneally at times of −6, −4, −2, 0, +1, and +2 relative to time-zero, the time at which all mice are challenged with 200 ng/mouse LPS injections. […] Testing to see if in this treatment regime, which is characterized by a slow, gradual systemic absorption from the site of injection, a longer duration of protection would be observed is carried out. Lethality is once again assessed 24 hours following the final injection.
Female, outbred, 9- to 11-week-old CF-1 mice (Charles River, Wilmington, Mass.) weighing 22-28 g are used as described elsewhere.^37 Upon arrival, the mice are allowed to acclimatize for a week prior to experimentation, housed 5 per cage in a controlled environment at the AALAC-accredited University of Kansas Animal Care Facility, and allowed access to mouse chow and water ad libitum. […] In experiments designed to test dose-response effects of the acyl-spermines in affording protection against LPS-induced lethality, mice receive graded doses of compound diluted in saline, i.p., in one flank, immediately before a supralethal (200 ng) LPS challenge, which is administered as a separate i.p. injection into the other flank. In experiments in which the temporal window of protection is to be examined, a fixed dose of 200 μg/mouse of compound is administered at various times, before, or after supralethal (200 ng/mouse) LPS challenge. Lethality is determined at 24 h post LPS challenge.

[1] = tested on: TNF-α and IL-6 production in whole human blood; assay: Multiplexed cytokine assay ex vivo in human blood stimulated with LPS; type: cell-based; conditions: versus polymyxin B
Description: The activity of a subset of active Lys-spermine compounds is examined for their ability to inhibit TNF-α and IL-6 production in whole human blood, stimulated ex vivo with LPS.
100 μl aliquots of fresh whole blood, anticoagulated with EDTA, obtained by venipuncture from healthy human volunteers with informed consent and as per guidelines approved by the Human Subjects Experimentation Committee, is exposed to an equal volume of 50 ng/ml of E. coli 0111:B4 LPS, with graded concentrations of test compounds diluted in saline for 4 h in a 96-well microtiter plate. The effect of the compounds on modulating cytokine production examined using a FACSArray multiplexed flow-cytometric bead array (CBA) system (Becton-Dickinson-Pharmingen, San Jose, Calif.). The system uses a sandwich ELISA-on-a-bead principle,^55;56 and is comprised of 6 populations of microbeads that are spectrally unique in terms of their intrinsic fluorescence emission intensities (detected in the FL3 channel of a standard flow cytometer). […] After washing the beads, a mixture of optimally paired second antibodies conjugated to phycoerythrin is added which then forms a fluorescent ternary complex with the immobilized cytokine, the intensity (measured in the FL2 channel) of which is proportional to the cytokine concentration on the bead. […] The data are analyzed in the CBA software suite that is integral to the FACSArray system.

[2] = type: binding, E. coli 0111:B4; conditions: E. coli 0111:B4 LPS; Tables 1-3; read-out: ED50 (half-maximal effective displacement of BC probe from LPS)
Description: Polymyxin B (PMB), a peptide antibiotic known to bind and neutralize LPS^47 serves as the positive control and reference compound for every plate, enabling the quantitative assessment of repeatability and reproducibility (CV and Z′ factors) for the assay. Robotic liquid handling is performed on a Precision 2000 automated microplate pipetting system, programmed using the Precision Power software, Bio-Tek Instruments Inc., VT, USA. Stock solutions of LPS (5 mg/ml; E. coli 0111:B4; procured from Sigma) and BC (500 μM) are prepared in Tris buffer (pH 7.4, 50 mM). 1 ml each of the LPS and BC stocks are mixed and diluted in Tris buffer to a final volume of 100 ml, yielding final concentrations of 50 μg/ml of LPS and 5 μM BC. 40 μl of this BC:LPS mixture is added to each well of the plate using the Precision 2000. Fluorescence measurements are made at 25° C. on a Fluoromax-3 with Micromax Microwell 384-well plate reader, using DataMax software, Jobin Yvon Inc., N.J. The BC excitation wavelength is 580 nm, emission spectra are taken at 620 nm with both emission and excitation monochromator bandpasses set at 5 nm.

NFκB = NFκB inhibition (LPS-induced); type: cell-based; conditions: in words
Excerpt: A focused library of alkyl or acyl c-substituted lysine-spermine conjugates is synthesized with even carbon-numbered chains of C14 to C20 lengths. […] Furthermore, the data showhigh activity compounds are those with chain lengths between C16 and C20. […] The exemplary compounds L-Lys-ε-(stearoyl)-N^1-spermine, D-Lys-ε-(stearoyl)-N^1-spermine, L-Lys-ε-(octadecanyl)-N^1-spermine and D-Lys-ε-(octadecanyl)—N1-spermine all show high activity for the prevention of LPS-induced NFκβ cytokine release from stimulated lymphocytes. Furthermore, the exemplary compounds L-Lys-ε-(stearoyl)-N^1-spermine, D-Lys-ε-(stearoyl)-N^1-spermine, L-Lys-ε-(octadecanyl)-N^1-spermine and D-Lys-ε-(octadecanyl)-N^1-spermine all show high activity for the prevention of LPS-induced NO release from stimulated lymphocytes.

SMILES: CCCCCCCCCCCCCCCCCC(=O)NCCCCC(N)C(=O)NCCCNCCCCNCCCN [Compound 8, D-Lys-ε-(stearoyl)-N^1-spermine]
- No. of live mice/total no. of mice tested (CF-1 mice; 10 μg/mouse i.p., immediately before 200 ng/mouse LPS, lethality at 24 h): 0/5
- No. of live mice/total no. of mice tested (CF-1 mice; 50 μg/mouse i.p., immediately before 200 ng/mouse LPS, lethality at 24 h): 1/5
- No. of live mice/total no. of mice tested (CF-1 mice; 100 μg/mouse i.p., immediately before 200 ng/mouse LPS, lethality at 24 h): 4/5*
- time window of protection, in words (CF-1 mice; 200 μg i.p.): significant protection up to 6 h prior to LPS challenge
- No. of live mice/total number of mice tested (CF-1 mice; 200 μg intraperitoneally at 0 h relative to LPS (200 ng/mouse)): 4/5*
- No. of live mice/total number of mice tested (CF-1 mice; 200 μg intraperitoneally at +1 h relative to LPS (200 ng/mouse)): 0/5*
- No. of live mice/total number of mice tested (CF-1 mice; 200 μg intraperitoneally at +2 h relative to LPS (200 ng/mouse)): 2/5
- No. of live mice/total number of mice tested (CF-1 mice; 200 μg intraperitoneally at −2 h relative to LPS (200 ng/mouse)): 4/5*
- No. of live mice/total number of mice tested (CF-1 mice; 200 μg intraperitoneally at −4 h relative to LPS (200 ng/mouse)): 4/5*
- No. of live mice/total number of mice tested (CF-1 mice; 200 μg intraperitoneally at −6 h relative to LPS (200 ng/mouse)): 3/5
- time window of protection, in words (CF-1 mice; 200 μg subcutaneous): significant protection even when the compound is administered 16 h ahead of LPS challenge
- No. of live mice/total no. of mice tested (CF-1 mice; 200 μg subcutaneously at 0 h relative to LPS (200 ng/mouse)): 1/5
- No. of live mice/total no. of mice tested (CF-1 mice; 200 μg subcutaneously at +2 h relative to LPS (200 ng/mouse)): 1/5
- No. of live mice/total no. of mice tested (CF-1 mice; 200 μg subcutaneously at −4 h relative to LPS (200 ng/mouse)): 5/5*
- No. of live mice/total no. of mice tested (CF-1 mice; 200 μg subcutaneously at −8 h relative to LPS (200 ng/mouse)): 3 of the 5 and 3/5
- No. of live mice/total no. of mice tested (CF-1 mice; 200 μg subcutaneously at −12 h relative to LPS (200 ng/mouse)): 3 of the 5 and 3/5
- No. of live mice/total no. of mice tested (CF-1 mice; 200 μg subcutaneously at −16 h relative to LPS (200 ng/mouse)): 3 of the 5 and 3/5
- No. of live mice/total no. of mice tested (CF-1 mice; 200 μg subcutaneously at −24 h relative to LPS (200 ng/mouse)): Two of the 5 and 2/5
- No. of live mice/total no. of mice tested (CF-1 mice; 200 μg/mouse i.p., immediately before 200 ng/mouse LPS, lethality at 24 h): 5/5*
- inhibitory potency on TNF-α and IL-6 production [1]: almost as potent as polymyxin B
- EC50 [2]: 8.8 µM
- prevention of LPS-induced NFκβ cytokine release from stimulated lymphocytes (NFκB): high activity
